These results are taken from patent US20190030005A1, “THERAPEUTIC AGENT FOR DYSLIPIDEMIA” (KOWA COMPANY, LTD., priority 2013, published 2019).

For one assay, the system named is TG. In words: Effects of combination use of Compound A and EPA on TG levels in rats. Conditions: for TG Relative value (vs Control): oral once a day, Wister rats; for Effect on TG level, in words: Compound A 0.1 mg/kg and/or EPA 200 mg/kg, single or combination administration, Dunnett's test vs control. The class given is in vivo, Wister rats. On the procedure: (§1) Wister rats (7-week old, male, Charles River Laboratories Japan Inc.) were used for the experiments. Under ad libitum feeding, the blood samples were obtained from the cervical vein, and the rats were divided into four groups (N=8) based on the plasma TG levels, plasma TC levels and the body weights. From the next day, a solvent (a 0.5% aqueous solution of methyl cellulose: […] In the afternoon of the final administration day, the blood samples were obtained under a condition of 4 hours fasting under anesthesia with pentobarbital, and the plasma VLDL-C levels were measured according to the method by Usui et al. (Usui S et al., Clin. Chem. 46, 63-72, 2000.) by high-speed liquid chromatography. Further, the TG levels were measured by an automatic analyzer, by using a measuring reagent, Qualigent TG (Sekisui Medical Co., Ltd.). The synergistic effect was determined by using Bürgi's formula (when a relative level in a group of combined use is smaller than a value of a product of a relative level of single agent A and a relative level of single agent B, then there is a synergistic effect). Group 2: 0.1 mg/kg of Compound A Group 3: 200 mg/kg of EPA Group 4: 0.1 mg/kg of Compound A and 200 mg/kg of EPA The results are shown as the mean value±standard deviation. Comparison between the control group and the drug-administration group was performed using a Dunnett's multiple comparison test, and a risk rate of less than 5% was determined to have a significant difference.

For a further assay, the system named is VLDL-C. In words: Effects of combination use of Compound A and EPA on plasma VLDL-C levels in rats. The class given is in vivo, Wister rats. Conditions: for VLDL-C Relative value (vs Control): oral once a day, Wister rats, plasma; for Effect on VLDL-C level, in words: Compound A 0.1 mg/kg and/or EPA 200 mg/kg, single or combination administration, Dunnett's test vs control. On the procedure: as §1

A further assay has as its system LDL-C. In words: Effects of combination use of Compound A and EPA on plasma LDL-C level in Wister rats. The class given is in vivo. Conditions: for LDL-C Relative value (vs. Control): oral once a day, Wister rats, plasma; for Effect on LDL-C level, in words: single administration of Compound A (0.1 mg/kg) or EPA, Dunnett's test vs control. On the procedure: as §1, with “divided into six groups (N=8)” for “divided into four groups (N=8)”, “the plasma LDL-C levels were” for “the plasma VLDL-C levels were”, “liquid chromatography. The synergistic” for “liquid chromatography. Further, the TG levels were measured by an automatic analyzer, by using a measuring reagent, Qualigent TG (Sekisui Medical Co., Ltd.). The synergistic”, “of EPA Group 5: 3,000 mg/kg of EPA Group 6: 0.1 mg/kg of Compound A and 3,000 mg/kg of EPA The results” for “of EPA The results”, “group and drug-administration group” for “group and the drug-administration group”, “was performed by using a” for “was performed using a”

Molecules are shown by their SMILES.

Turning to `CC[C@@H](Oc1cccc(CN(CCCOc2ccc(OC)cc2)c2nc3ccccc3o2)c1)C(=O)O` [Compound A, (R)-2-[3-[[N-(benzoxazol-2-yl)-N-3-(4-methoxyphenoxy)propyl]aminomethyl]phenoxy]butyric acid], the “TG Relative value (vs Control)” value in the assay with TG (Compound A 0.1 mg/kg alone) is reported as 0.82. Besides, the “Effect on TG level, in words” value in the assay on TG was “a tendency of decreasing the level of TG was observed”. For the same compound, the “VLDL-C Relative value (vs Control)” value in the assay on VLDL-C (Compound A 0.1 mg/kg alone) was 0.68. For the same compound, the “Effect on VLDL-C level, in words” value with VLDL-C is “a tendency of decreasing the level of VLDL-C was observed”. Moreover, the “LDL-C Relative value (vs. Control)” value with LDL-C (Compound A 0.1 mg/kg alone) is 1.02. Moreover, the “Effect on LDL-C level, in words” value in the assay on LDL-C is given as “an obvious effect on LDL-C level was not observed”.
Take `CC/C=C\C/C=C\C/C=C\C/C=C\C/C=C\CCCC(=O)O` [EPA, All-cis-5,8,11,14,17-eicosapentaenoic acid]: the “Effect on TG level, in words” value with TG is reported as “any obvious effect on TG level was not observed”. Besides, the “TG Relative value (vs Control)” value in the assay on TG (EPA 200 mg/kg alone) is recorded as 1.10. Further, the “Effect on VLDL-C level, in words” value with VLDL-C was “any obvious effect on VLDL-C level was not observed”. Also, in the assay on VLDL-C (EPA 200 mg/kg alone), the “VLDL-C Relative value (vs Control)” value worked out at 0.92. For the same compound, the entries for the “LDL-C Relative value (vs. Control)” value in the assay with LDL-C (EPA 200 mg/kg alone) and with LDL-C (EPA 3000 mg/kg alone) were 0.84 and 0.85, respectively. The “Effect on LDL-C level, in words” value in the assay with LDL-C is “mild decreasing action on LDL-C level was observed”.
